Test results: patent US20250230193A1, “CYCLIC COMPOUND HAVING SELECTIVE KRAS INHIBITORY EFFECT ON HRAS AND NRAS” (CHUGAI SEIYAKU KABUSHIKI KAISHA, priority 2022, published 2025)
Where a SMILES comes first, the peptide text is derived from it. Bridges are numbered along the chain shown (N, C = ends). [ ]: non-standard residue; d: D form. The star is where a group is joined. hPhe(3-Cl-4-CF3) = N[C@@H](CCc1ccc(C(F)(F)F)c(Cl)c1)C(=O)O; NPrPhe(4-CF3) = CCCN[C@@H](Cc1ccc(C(F)(F)F)cc1)C(=O)O; NMeGly(cPent) = CN[C@H](C(=O)O)C1CCCC1; Pro(4,4-F2) = O=C(O)[C@@H]1CC(F)(F)CN1; Hyp = O=C(O)[C@@H]1C[C@@H](O)CN1; NMeD = CN[C@@H](CC(=O)O)C(=O)O; NMeL = CN[C@@H](CC(C)C)C(=O)O; Morpholide = C1CN(*)CCO1; NMeA = CN[C@@H](C)C(=O)O; Ac5c = NC1(C(=O)O)CCCC1; Aze = O=C(O)[C@@H]1CCN1; Ac4c = NC1(C(=O)O)CCC1; Sar = CNCC(=O)O

How the values were obtained:
[1] = target: GDP-bound NRAS wild-type protein (Homo sapiens, UniProt P01111); experiment: Binding to NRAS by surface plasmon resonance (SPR), Single Cycle Kinetics; conditions: SPR; for NRAS/KRAS (ratio of KD value with respect to NRAS to KD value with respect to KRAS) / NRAS/KRAS (ratio of KD value for NRAS to KD value for KRAS): GDP-bound NRAS wild-type vs GDP-bound KRAS wild-type
Chain of GDP-bound NRAS wild-type protein (P01111 whole entry): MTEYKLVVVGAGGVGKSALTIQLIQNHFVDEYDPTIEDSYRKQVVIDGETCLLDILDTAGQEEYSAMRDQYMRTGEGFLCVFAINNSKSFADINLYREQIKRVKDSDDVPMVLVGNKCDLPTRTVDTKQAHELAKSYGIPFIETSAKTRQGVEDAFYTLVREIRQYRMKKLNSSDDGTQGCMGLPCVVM

[2] = target: GDP-bound HRAS wild-type protein (Homo sapiens, UniProt P01112); experiment: Binding to HRAS by surface plasmon resonance (SPR), Single Cycle Kinetics; conditions: SPR; for HRAS/KRAS (ratio of KD value with respect to HRAS to KD value with respect to KRAS) / HRAS/KRAS (ratio of KD value for HRAS to KD value for KRAS): GDP-bound HRAS wild-type vs GDP-bound KRAS wild-type
Chain of GDP-bound HRAS wild-type protein (P01112 whole entry): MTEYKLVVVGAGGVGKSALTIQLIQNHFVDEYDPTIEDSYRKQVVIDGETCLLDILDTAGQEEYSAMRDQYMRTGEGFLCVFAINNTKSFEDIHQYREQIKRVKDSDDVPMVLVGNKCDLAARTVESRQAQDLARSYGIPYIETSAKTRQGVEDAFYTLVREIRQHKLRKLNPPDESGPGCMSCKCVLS

CCCN1C(=O)[C@@H]2CCN2C(=O)[C@H](C)N(C)C(=O)[C@H]([C@@H](C)CC)NC(=O)[C@H](CC(C)C)N(C)C(=O)C[C@@H](C(=O)N2CCOCC2)N(C)C(=O)[C@H](C2CCCC2)N(C)C(=O)C2(CCC2)NC(=O)[C@@H]2C[C@@H](OCC)CN2C(=O)[C@H](CCc2ccc(C(F)(F)F)c(Cl)c2)NC(=O)CN(C)C(=O)[C@@H]1Cc1ccc(C(F)(F)F)cc1 [PP0406] ([NMeL]I[NMeA][Aze][NPrPhe(4-CF3)][Sar][hPhe(3-Cl-4-CF3)][Hyp](Et)[Ac4c][NMeGly(cPent)][NMeD]-Morpholide; lactam N-11)
NRAS/KRAS (ratio of KD for GDP-bound NRAS wild-type to KD for KRAS) [1]: C (A compound having a KD ratio of 0.1 or more and less than 3 is denoted as C) | HRAS/KRAS (ratio of KD for GDP-bound HRAS wild-type to KD for KRAS) [2]: B (a compound having 3 or more and less than 10 is denoted as B)

C=CCN1CC(=O)N(C)[C@H]2C/C=C\CCN(C2=O)[C@@H](Cc2ccc(C)cc2)C(=O)N(C)CC(=O)N[C@@H](CCc2cc(F)c(C(F)(F)F)c(F)c2)C(=O)N2C[C@H](OCC)C[C@H]2C(=O)NC2(CC(C)(C)C2)C(=O)N(C)[C@@H](C2CCCC2)C(=O)N(C)[C@H](C(=O)N(C)C)CC(=O)N(C)[C@@H](CCC)C(=O)N[C@@H]([C@@H](C)CC)C1=O [PP2094]
NRAS/KRAS (ratio of KD value with respect to NRAS to KD value with respect to KRAS) [1]: A (a compound having 10 or more and less than 20 is denoted as A) | HRAS/KRAS (ratio of KD value with respect to HRAS to KD value with respect to KRAS) [2]: A (a compound having 10 or more and less than 20 is denoted as A)

CCCN1C(=O)CN(C)C(=O)CN(C)C(=O)[C@H]([C@@H](C)CC)NC(=O)[C@H](CC(C)C)N(C)C(=O)C[C@@H](C(=O)N(C)C)N(C)C(=O)[C@H](C2CCCC2)N(C)C(=O)C2(CCCC2)NC(=O)[C@@H]2CCCN2C(=O)[C@H](CCc2ccc(C(F)(F)F)c(Cl)c2)NC(=O)CN(C)C(=O)[C@@H]1Cc1ccc(C(F)(F)F)cc1 [PP0169] ([NMeL]I[Sar][Sar][NPrPhe(4-CF3)][Sar][hPhe(3-Cl-4-CF3)]P[Ac5c][NMeGly(cPent)][NMeD]-NMe2; lactam N-11)
NRAS/KRAS (ratio of KD for GDP-bound NRAS wild-type to KD for KRAS) [1]: B (a compound having 3 or more and less than 10 is denoted as B) | HRAS/KRAS (ratio of KD for GDP-bound HRAS wild-type to KD for KRAS) [2]: B (a compound having 3 or more and less than 10 is denoted as B)

CC[C@H](C)[C@@H]1NC(=O)[C@H](CC2CCC2)N(C)C(=O)C[C@@H](C(=O)N(C)C)N(C)C(=O)[C@H](C2CCCC2)N(C)C(=O)C2(CC(C)(C)C2)NC(=O)[C@@H]2C[C@H](C)CN2C(=O)[C@H](CCc2cc(F)c(C(F)(F)F)c(F)c2)NC(=O)CN(C)C(=O)[C@H](Cc2ccc(C(F)(F)F)cc2)N2CC/C=C\C[C@@H](C2=O)N(C)C(=O)CN(C)C1=O [PP1684]
NRAS/KRAS (ratio of KD value for NRAS to KD value for KRAS) [1]: A (a compound having 10 or more and less than 20 is denoted as A) | HRAS/KRAS (ratio of KD value for HRAS to KD value for KRAS) [2]: A (a compound having 10 or more and less than 20 is denoted as A)

CCC[C@H]1C(=O)N[C@@H]([C@@H](C)CC)C(=O)N(C)CC(=O)N(C)[C@H]2C/C=C\CCN(C2=O)[C@@H](Cc2ccc(C(F)(F)F)cc2)C(=O)N(C)CC(=O)N[C@@H](CCc2ccc(C(F)(F)F)c(OC)c2)C(=O)N2C[C@H](OCC)C[C@H]2C(=O)N(C)C2(CCC2)C(=O)N(C)[C@@H](C(CC)CC)C(=O)N(C)[C@H](C(=O)N(C)C)CC(=O)N1C [PP2382]
NRAS/KRAS (ratio of KD value with respect to NRAS to KD value with respect to KRAS) [1]: A (a compound having 10 or more and less than 20 is denoted as A) | HRAS/KRAS (ratio of KD value with respect to HRAS to KD value with respect to KRAS) [2]: A (a compound having 10 or more and less than 20 is denoted as A)

CCCN1C(=O)[C@@H]2CCN2C(=O)CN(C)C(=O)[C@H]([C@@H](C)CC)NC(=O)[C@H](CC(C)C)N(C)C(=O)C[C@@H](C(=O)N(C)C)NC(=O)[C@H](C2CCCC2)N(C)C(=O)C2(CCCC2)NC(=O)[C@@H]2CC(F)(F)CN2C(=O)[C@H](CCc2ccc(C(F)(F)F)c(Cl)c2)NC(=O)CN(C)C(=O)[C@@H]1Cc1ccc(C(F)(F)F)cc1 [PP0387] ([NMeL]I[Sar][Aze][NPrPhe(4-CF3)][Sar][hPhe(3-Cl-4-CF3)][Pro(4,4-F2)][Ac5c][NMeGly(cPent)]D-NMe2; lactam N-11)
NRAS/KRAS (ratio of KD for GDP-bound NRAS wild-type to KD for KRAS) [1]: C (A compound having a KD ratio of 0.1 or more and less than 3 is denoted as C) | HRAS/KRAS (ratio of KD for GDP-bound HRAS wild-type to KD for KRAS) [2]: B (a compound having 3 or more and less than 10 is denoted as B)

CC[C@H](C)[C@@H]1NC(=O)[C@H](CC)N(C)C(=O)C[C@@H](C(=O)N(C)C)N(C)C(=O)[C@H](C2CCCC2)N(C)C(=O)C2(CCC2)N(C)C(=O)[C@@H]2CCCN2C(=O)[C@H](CCc2cc(F)c(C(F)(F)F)c(F)c2)NC(=O)CN(C)C(=O)[C@H](Cc2ccc(C)cc2)N2CC/C=C\C[C@@H](C2=O)N(C)C(=O)CN(C)C1=O [PP1782]
NRAS/KRAS (ratio of KD value for NRAS to KD value for KRAS) [1]: A (a compound having 10 or more and less than 20 is denoted as A) | HRAS/KRAS (ratio of KD value for HRAS to KD value for KRAS) [2]: B (a compound having 3 or more and less than 10 is denoted as B)
